What was measured:
Oryctolagus cuniculus [1] = organism: Oryctolagus cuniculus; assay: Relative aggregant activity in rabbit platelets was determined; assay type: functional
Rattus norvegicus = assay: (§1) Compound is evaluated for hypotensive activity in anesthetized rat (in vivo); assay type: functional
Cavia porcellus [2] = assay: Compound was evaluated for in vivo thrombocytopenia effect in anesthetized guinea pig; assay type: functional, organism-based
Oryctolagus cuniculus [3] = organism: Oryctolagus cuniculus; assay: Compound was tested in vitro for its ability to aggregate platelet-rich plasma (PRP) in rabbit; assay type: functional
Oryctolagus cuniculus [4] = organism: Oryctolagus cuniculus; assay: Compound was tested in vitro for its ability to aggregate washed rabbit platelets (WP); assay type: functional
Cavia porcellus [5] = assay: Compound was evaluated for in vivo bronchoconstriction in anesthetized guinea pig (3 cm H2O); assay type: functional, Lung
[6] = as §1; assay type: functional

CCCCCCCCCCCCCCCCOCCC(COP(=O)([O-])OCC[N+](C)(C)C)OC(C)=O (stereo not drawn)
RA (Oryctolagus cuniculus [1]): 0.015

CCCCCCCCCCCCCCCCCCSCC(COP(=O)([O-])OCC[N+](C)(C)C)OC(C)=O (stereo not drawn)
RA (Oryctolagus cuniculus [1]): 0

CCCCCCCCCCCCCCc1cccc(OCC(COP(=O)([O-])OCC[N+](C)(C)C)OC(C)=O)c1 (stereo not drawn)
RA (Oryctolagus cuniculus [1]): 0.364

COCCOCCOCCCCCCCCOCC(COP(=O)([O-])OCC[N+](C)(C)C)OC(C)=O (stereo not drawn)
RA (Oryctolagus cuniculus [1]): 0.007

CCCCCCCCCCCCCCCC(=O)OCC(COP(=O)([O-])OCC[N+](C)(C)C)OC(C)=O (stereo not drawn)
RA (Oryctolagus cuniculus [1]): 0.009

CCCCCCCCCCCCCCCCOCC(COP(=O)([O-])OCC[N+](C)(C)C)OC(C)=O (stereo not drawn) [PLATELET ACTIVATING FACTOR]
RA (Oryctolagus cuniculus [1]): 1.268 | EC30 (Rattus norvegicus): 1.3e-10 M/kg | EC50 (Cavia porcellus [2]): 2e-10 M/kg | EC50 (Oryctolagus cuniculus [3]): 45 nM | EC50 (Oryctolagus cuniculus [4]): 0.2 nM | Activity (Cavia porcellus [5]): 5e-11 M/kg

CCCCCCCCCCCCCCCCCC(=O)OCC(COP(=O)([O-])OCC[N+](C)(C)C)OC(C)=O (stereo not drawn)
RA (Oryctolagus cuniculus [1]): 0.004

CCCCCCCCCCCCCCCCCC(COP(=O)([O-])OCC[N+](C)(C)C)OC(C)=O (stereo not drawn)
RA (Oryctolagus cuniculus [1]): 0.005

CCCCCCCCCCCCCCCCCCOC[C@H](COP(=O)([O-])OCC[N+](C)(C)C)OC(C)=O
EC30 (Rattus norvegicus): 4.9e-10 M/kg | EC50 (Cavia porcellus [2]): 1.8e-10 M/kg | EC50 (Oryctolagus cuniculus [3]): 19 nM | Activity (Cavia porcellus [5]): 1.8e-10 M/kg

CCCCOCC(COP(=O)([O-])OCC[N+](C)(C)C)OC(C)=O (stereo not drawn)
RA (Oryctolagus cuniculus [1]): 0.001 | EC30 (Rattus norvegicus): 1.1e-06 M/kg | EC50 (Cavia porcellus [2]): 1e-06 M/kg | EC50 (Oryctolagus cuniculus [3]): 100000 nM | EC50 (Oryctolagus cuniculus [4]): 1800 nM | Activity (Cavia porcellus [5]): 1e-06 M/kg

CCCCCCCCCCOCC(COP(=O)([O-])OCC[N+](C)(C)C)OC(C)=O (stereo not drawn)
RA (Oryctolagus cuniculus [1]): 1.048 | EC30 [6]: 7e-09 M/kg | EC50 (Cavia porcellus [2]): 6e-10 M/kg | EC50 (Oryctolagus cuniculus [3]): 1200 nM | EC50 (Oryctolagus cuniculus [4]): 8.5 nM | Activity (Cavia porcellus [5]): 2.5e-10 M/kg

CCCCCCCCCCCCCCc1ccc(OCC(COP(=O)([O-])OCC[N+](C)(C)C)OC(C)=O)cc1 (stereo not drawn)
RA (Oryctolagus cuniculus [1]): 0.302

CCCCCCCCCCCCCCCCCCOCC(COP(=O)([O-])OCC[N+](C)(C)C)OC(C)=O (stereo not drawn)
RA (Oryctolagus cuniculus [1]): 1 | EC50 (Oryctolagus cuniculus [3]): 57 nM

CCCCCC/C=C/CCCCCCCCOCC(COP(=O)([O-])OCC[N+](C)(C)C)OC(C)=O (stereo not drawn)
RA (Oryctolagus cuniculus [1]): 1.6

CCCCCCCCCCOCCOCCOCC(COP(=O)([O-])OCC[N+](C)(C)C)OC(C)=O (stereo not drawn)
RA (Oryctolagus cuniculus [1]): 0.28

CCCCCCCCCCCCCCCCc1ccccc1OCC(COP(=O)([O-])OCC[N+](C)(C)C)OC(C)=O (stereo not drawn)
RA (Oryctolagus cuniculus [1]): 0.002

CCCCCCCCCCCCCCCCCCC(COP(=O)([O-])OCC[N+](C)(C)C)OC(C)=O (stereo not drawn)
RA (Oryctolagus cuniculus [1]): 0.022

CCCCCCCCCCOCc1ccc(OCC(COP(=O)([O-])OCC[N+](C)(C)C)OC(C)=O)cc1 (stereo not drawn)
RA (Oryctolagus cuniculus [1]): 0.01

CCCCCCOCC(COP(=O)([O-])OCC[N+](C)(C)C)OC(C)=O (stereo not drawn)
RA (Oryctolagus cuniculus [1]): 0.003 | EC30 (Rattus norvegicus): 7e-07 M/kg | EC50 (Cavia porcellus [2]): 1e-07 M/kg | EC50 (Oryctolagus cuniculus [3]): 17000 nM | EC50 (Oryctolagus cuniculus [4]): 310 nM | Activity (Cavia porcellus [5]): 2.6e-08 M/kg

COCC(COP(=O)([O-])OCC[N+](C)(C)C)OC(C)=O (stereo not drawn)
EC30 (Rattus norvegicus): >1.6e-06 M/kg | EC50 (Cavia porcellus [2]): > 1.6e-06 M/kg | EC50 (Oryctolagus cuniculus [3]): > 100000 nM | Activity (Cavia porcellus [5]): >1.6e-06 M/kg

CCCCCCCC/C=C/CCCCCCCCOCC(COP(=O)([O-])OCC[N+](C)(C)C)OC(C)=O (stereo not drawn)
RA (Oryctolagus cuniculus [1]): 2

CCCCCCCCCCCCCCCCCCCCOCC(COP(=O)([O-])OCC[N+](C)(C)C)OC(C)=O (stereo not drawn)
RA (Oryctolagus cuniculus [1]): 0.8 | EC30 (Rattus norvegicus): 2.4e-09 M/kg | EC50 (Cavia porcellus [2]): 1.8e-10 M/kg | EC50 (Oryctolagus cuniculus [3]): 190 nM | EC50 (Oryctolagus cuniculus [4]): 0.33 nM | Activity (Cavia porcellus [5]): 1.3e-09 M/kg

CCCCCCCCCCOc1ccc(COCC(COP(=O)([O-])OCC[N+](C)(C)C)OC(C)=O)cc1 (stereo not drawn)
RA (Oryctolagus cuniculus [1]): 0.01

CCCCCCCCCCCCOCC(COP(=O)([O-])OCC[N+](C)(C)C)OC(C)=O (stereo not drawn)
RA (Oryctolagus cuniculus [1]): 1.248 | EC30 (Rattus norvegicus): 3.3e-09 M/kg | EC50 (Cavia porcellus [2]): 6e-10 M/kg | EC50 (Oryctolagus cuniculus [3]): 230 nM | EC50 (Oryctolagus cuniculus [4]): 0.45 nM | Activity (Cavia porcellus [5]): 1.2e-10 M/kg

CCCCC/C=C/C/C=C/CCCCCCCCOCC(COP(=O)([O-])OCC[N+](C)(C)C)OC(C)=O (stereo not drawn)
RA (Oryctolagus cuniculus [1]): 2.667

CCCCCCCCCCCCCCCCCCCCC(COP(=O)([O-])OCC[N+](C)(C)C)OC(C)=O (stereo not drawn)
RA (Oryctolagus cuniculus [1]): 0
